The experiment addresses T1, IL-1β (Homo sapiens, UniProt P01584).
T1 construct: purchased BioLegend 579404
Put plainly: IL-6 assay in MRC5 cells: inhibition of IL-1β induced IL-6 secretion (AlphaLISA). The class given is cell-based. Particulars: inhibition of IL-1β induced IL-6 secretion in MRC5 cells; read-out: MRC5 IC50. In outline:
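Compound was pre-incubated 1 h at ambient temperature with recombinant human IL-1β at 2λ EC80 before adding human lung fibroblast MRC5 cells (3000/well) in EMEM with 0.025% BSA. After overnight culture at 37 °C, 5% CO2, secreted IL-6 in conditioned medium was measured by AlphaLISA; IC50 from 4-parameter logistic fits.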
A general note: Bead proximity is the source of the signal in Alpha formats.

From patent US20260242419A1, “A CYCLIC PEPTIDE FOR TRAPPING INTERLEUKIN-1 BETA” (Merck Sharp & Dohme LLC, priority 2023, published 2026) come the findings set out here.

Non-standard residues stand in square brackets, D forms with d. Residues, ends and D or L forms follow the SMILES beside them. Phe(4-(5-CO2H-2-pyrimidyl)) = N[C@@H](Cc1ccc(-c2ncc(C(=O)O)cn2)cc1)C(=O)O; Phe(4-(4-Ac-piperazinyl)) = CC(=O)N1CCN(c2ccc(C[C@H](N)C(=O)O)cc2)CC1; dPro(4R-(4-pyridylmethyl)) = O=C(O)[C@H]1C[C@@H](Cc2ccncc2)CN1; Trp(βS-Me,4-F) = C[C@@H](c1c[nH]c2cccc(F)c12)[C@H](N)C(=O)O; Bip(4'-COOH) = N[C@@H](Cc1ccc(-c2ccc(C(=O)O)cc2)cc1)C(=O)O; Ala(1-bicyclo(1.1.1)pentyl) = N[C@@H](CC12CC(C1)C2)C(=O)O; dPro(4R-Bzl(4-F)) = O=C(O)[C@H]1C[C@@H](Cc2ccc(F)cc2)CN1; Ala(pyrimidin-5-yl) = N[C@@H](Cc1cncnc1)C(=O)O; Phe(4-COOH) = N[C@@H](Cc1ccc(C(=O)O)cc1)C(=O)O; Pro(cis-4-F) = O=C(O)[C@@H]1C[C@H](F)CN1; Ala(4-THP) = N[C@@H](CC1CCOCC1)C(=O)O; cisHyp = O=C(O)[C@@H]1C[C@H](O)CN1; 4Pal = N[C@@H](Cc1ccncc1)C(=O)O; αMeD = C[C@](N)(CC(=O)O)C(=O)O; d(αMeS) = C[C@@](N)(CO)C(=O)O; Dab = NCC[C@H](N)C(=O)O; Aib = CC(C)(N)C(=O)O

T1 sequence (P01584 117-269): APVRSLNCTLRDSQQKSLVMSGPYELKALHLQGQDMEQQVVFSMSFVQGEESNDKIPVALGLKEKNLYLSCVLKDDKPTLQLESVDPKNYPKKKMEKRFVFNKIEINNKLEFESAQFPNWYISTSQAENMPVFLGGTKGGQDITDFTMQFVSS

Take `C[C@@H](c1c[nH]c2cccc(F)c12)[C@@H]1NC(=O)[C@@H]2C[C@H](O)CN2C(=O)CNC(=O)[C@H](Cc2ccc(C(=O)O)cc2)NC(=O)[C@H](CC23CC(C2)C3)NC(=O)[C@H](Cc2ccc(-c3ccc(C(=O)O)cc3)cc2)NC(=O)[C@H]2C[C@@H](Cc3ccncc3)CN2C(=O)CNC(=O)[C@H](CCN)NC(=O)[C@H](CCC(N)=O)NC(=O)[C@H](Cc2cncnc2)NC(=O)[C@@](C)(CO)NC(=O)[C@H](Cc2c[nH]c3ccccc23)NC(=O)[C@H](CO)NC(=O)C(C)(C)NC1=O` [Example 190] (cyclo([Bip(4'-COOH)][Ala(1-bicyclo(1.1.1)pentyl)][Phe(4-COOH)]G[cisHyp][Trp(βS-Me,4-F)][Aib]SW[d(αMeS)][Ala(pyrimidin-5-yl)]Q[Dab]G[dPro(4R-(4-pyridylmethyl))])): the IC50 (usually the midpoint of a concentration-inhibition curve) stood at 0.019 nM.
The same measure for `C[C@@H](c1c[nH]c2cccc(F)c12)[C@@H]1NC(=O)[C@@H]2C[C@H](O)CN2C(=O)CNC(=O)[C@H](Cc2ccc(C(=O)O)cc2)NC(=O)[C@H](CC23CC(C2)C3)NC(=O)[C@H](Cc2ccc(-c3ccc(C(=O)O)cc3)cc2)NC(=O)[C@H]2C[C@@H](Cc3ccncc3)CN2C(=O)CNC(=O)[C@H](CCN)NC(=O)[C@H](CCC(N)=O)NC(=O)[C@H](CC2CCOCC2)NC(=O)[C@](C)(CC(=O)O)NC(=O)[C@H](Cc2c[nH]c3ccccc23)NC(=O)[C@H](CO)NC(=O)C(C)(C)NC1=O` [Example 191] (cyclo([Bip(4'-COOH)][Ala(1-bicyclo(1.1.1)pentyl)][Phe(4-COOH)]G[cisHyp][Trp(βS-Me,4-F)][Aib]SW[αMeD][Ala(4-THP)]Q[Dab]G[dPro(4R-(4-pyridylmethyl))])): 0.021 nM.
The same measure for `C[C@@H](c1c[nH]c2cccc(F)c12)[C@@H]1NC(=O)[C@@H]2C[C@H](O)CN2C(=O)CNC(=O)[C@H](Cc2ccc(C(=O)O)cc2)NC(=O)[C@H](CC23CC(C2)C3)NC(=O)[C@H](Cc2ccc(-c3ccc(C(=O)O)cc3)cc2)NC(=O)[C@H]2C[C@@H](Cc3ccncc3)CN2C(=O)CNC(=O)[C@H](CCN)NC(=O)[C@H](CCC(N)=O)NC(=O)[C@H](CC2CCOCC2)NC(=O)[C@@](C)(CO)NC(=O)[C@H](Cc2c[nH]c3ccccc23)NC(=O)[C@H](CO)NC(=O)C(C)(C)NC1=O` [Example 192] (cyclo([Bip(4'-COOH)][Ala(1-bicyclo(1.1.1)pentyl)][Phe(4-COOH)]G[cisHyp][Trp(βS-Me,4-F)][Aib]SW[d(αMeS)][Ala(4-THP)]Q[Dab]G[dPro(4R-(4-pyridylmethyl))])): 0.021 nM.
As for `C[C@@H](c1c[nH]c2cccc(F)c12)[C@@H]1NC(=O)[C@@H]2C[C@H](F)CN2C(=O)CNC(=O)[C@H](Cc2ccc(C(=O)O)cc2)NC(=O)[C@H](CC23CC(C2)C3)NC(=O)[C@H](Cc2ccc(-c3ccc(C(=O)O)cc3)cc2)NC(=O)[C@H]2C[C@@H](Cc3ccncc3)CN2C(=O)CNC(=O)[C@H](CCN)NC(=O)[C@H](CCC(N)=O)NC(=O)[C@H](CC2CCOCC2)NC(=O)[C@](C)(CC(=O)O)NC(=O)[C@H](Cc2c[nH]c3ccccc23)NC(=O)[C@H](CO)NC(=O)C(C)(C)NC1=O` [Example 193] (cyclo([Bip(4'-COOH)][Ala(1-bicyclo(1.1.1)pentyl)][Phe(4-COOH)]G[Pro(cis-4-F)][Trp(βS-Me,4-F)][Aib]SW[αMeD][Ala(4-THP)]Q[Dab]G[dPro(4R-(4-pyridylmethyl))])), the IC50 turned out to be 0.011 nM.
For `C[C@@H](c1c[nH]c2cccc(F)c12)[C@@H]1NC(=O)[C@@H]2C[C@H](O)CN2C(=O)CNC(=O)[C@H](Cc2ccc(C(=O)O)cc2)NC(=O)[C@H](Cc2ccncc2)NC(=O)[C@H](Cc2ccc(-c3ccc(C(=O)O)cc3)cc2)NC(=O)[C@H]2C[C@@H](Cc3ccncc3)CN2C(=O)CNC(=O)[C@H](CCN)NC(=O)[C@H](CCC(N)=O)NC(=O)[C@H](Cc2cncnc2)NC(=O)C(C)(C)NC(=O)[C@H](Cc2c[nH]c3ccccc23)NC(=O)[C@H](CO)NC(=O)C(C)(C)NC1=O` [Example 194] (cyclo([Bip(4'-COOH)][4Pal][Phe(4-COOH)]G[cisHyp][Trp(βS-Me,4-F)][Aib]SW[Aib][Ala(pyrimidin-5-yl)]Q[Dab]G[dPro(4R-(4-pyridylmethyl))])), the IC50 was found to be 0.014 nM.
With `C[C@@H](c1c[nH]c2cccc(F)c12)[C@@H]1NC(=O)[C@@H]2C[C@H](O)CN2C(=O)CNC(=O)[C@H](Cc2ccc(C(=O)O)cc2)NC(=O)[C@H](Cc2ccncc2)NC(=O)[C@H](Cc2ccc(-c3ccc(C(=O)O)cc3)cc2)NC(=O)[C@H]2C[C@@H](Cc3ccncc3)CN2C(=O)CNC(=O)[C@H](CCN)NC(=O)[C@H](CCC(N)=O)NC(=O)[C@H](Cc2cncnc2)NC(=O)[C@@](C)(CO)NC(=O)[C@H](Cc2c[nH]c3ccccc23)NC(=O)[C@H](CO)NC(=O)C(C)(C)NC1=O` [Example 195] (cyclo([Bip(4'-COOH)][4Pal][Phe(4-COOH)]G[cisHyp][Trp(βS-Me,4-F)][Aib]SW[d(αMeS)][Ala(pyrimidin-5-yl)]Q[Dab]G[dPro(4R-(4-pyridylmethyl))])), the IC50 stood at 0.013 nM.
For the compound `CC(=O)N1CCN(c2ccc(C[C@@H]3NC(=O)[C@H]4C[C@@H](Cc5ccc(F)cc5)CN4C(=O)CNC(=O)[C@H](CCN)NC(=O)[C@H](CCC(N)=O)NC(=O)[C@H](Cc4cncnc4)NC(=O)C(C)(C)NC(=O)[C@H](Cc4c[nH]c5ccccc45)NC(=O)[C@H](CO)NC(=O)C(C)(C)NC(=O)[C@H]([C@@H](C)c4c[nH]c5cccc(F)c45)NC(=O)[C@@H]4C[C@H](O)CN4C(=O)CNC(=O)[C@H](Cc4ccc(C(=O)O)cc4)NC(=O)[C@H](Cc4ccncc4)NC3=O)cc2)CC1` [Example 196] (cyclo([Phe(4-(4-Ac-piperazinyl))][4Pal][Phe(4-COOH)]G[cisHyp][Trp(βS-Me,4-F)][Aib]SW[Aib][Ala(pyrimidin-5-yl)]Q[Dab]G[dPro(4R-Bzl(4-F))])), the IC50 was 0.038 nM.
As to `C[C@@H](c1c[nH]c2cccc(F)c12)[C@@H]1NC(=O)[C@@H]2C[C@H](O)CN2C(=O)CNC(=O)[C@H](Cc2ccc(C(=O)O)cc2)NC(=O)[C@H](Cc2ccncc2)NC(=O)[C@H](Cc2ccc(-c3ncc(C(=O)O)cn3)cc2)NC(=O)[C@H]2C[C@@H](Cc3ccncc3)CN2C(=O)CNC(=O)[C@H](CCN)NC(=O)[C@H](CCC(N)=O)NC(=O)[C@H](Cc2cncnc2)NC(=O)C(C)(C)NC(=O)[C@H](Cc2c[nH]c3ccccc23)NC(=O)[C@H](CO)NC(=O)C(C)(C)NC1=O` [Example 197] (cyclo([Phe(4-(5-CO2H-2-pyrimidyl))][4Pal][Phe(4-COOH)]G[cisHyp][Trp(βS-Me,4-F)][Aib]SW[Aib][Ala(pyrimidin-5-yl)]Q[Dab]G[dPro(4R-(4-pyridylmethyl))])), the IC50 is 0.036 nM.
The same measure for `C[C@@H](c1c[nH]c2cccc(F)c12)[C@@H]1NC(=O)[C@@H]2C[C@H](F)CN2C(=O)CNC(=O)[C@H](Cc2ccc(C(=O)O)cc2)NC(=O)[C@H](CC23CC(C2)C3)NC(=O)[C@H](Cc2ccc(-c3ncc(C(=O)O)cn3)cc2)NC(=O)[C@H]2C[C@@H](Cc3ccncc3)CN2C(=O)CNC(=O)[C@H](CCN)NC(=O)[C@H](CCC(N)=O)NC(=O)[C@H](Cc2cncnc2)NC(=O)C(C)(C)NC(=O)[C@H](Cc2c[nH]c3ccccc23)NC(=O)[C@H](CO)NC(=O)C(C)(C)NC1=O` [Example 198] (cyclo([Phe(4-(5-CO2H-2-pyrimidyl))][Ala(1-bicyclo(1.1.1)pentyl)][Phe(4-COOH)]G[Pro(cis-4-F)][Trp(βS-Me,4-F)][Aib]SW[Aib][Ala(pyrimidin-5-yl)]Q[Dab]G[dPro(4R-(4-pyridylmethyl))])): 0.024 nM; for `C[C@@H](c1c[nH]c2cccc(F)c12)[C@@H]1NC(=O)[C@@H]2C[C@H](O)CN2C(=O)CNC(=O)[C@H](Cc2ccc(C(=O)O)cc2)NC(=O)[C@H](Cc2ccncc2)NC(=O)[C@H](Cc2ccc(-c3ccc(C(=O)O)cc3)cc2)NC(=O)[C@H]2C[C@@H](Cc3ccncc3)CN2C(=O)CNC(=O)[C@H](CO)NC(=O)[C@H](CCC(N)=O)NC(=O)[C@H](CC2CCOCC2)NC(=O)[C@](C)(CC(=O)O)NC(=O)[C@H](Cc2c[nH]c3ccccc23)NC(=O)[C@H](CO)NC(=O)C(C)(C)NC1=O` [Example 199] (cyclo([Bip(4'-COOH)][4Pal][Phe(4-COOH)]G[cisHyp][Trp(βS-Me,4-F)][Aib]SW[αMeD][Ala(4-THP)]QSG[dPro(4R-(4-pyridylmethyl))])): 0.032 nM; for `C[C@@H](c1c[nH]c2cccc(F)c12)[C@@H]1NC(=O)[C@@H]2C[C@H](F)CN2C(=O)CNC(=O)[C@H](Cc2ccc(C(=O)O)cc2)NC(=O)[C@H](Cc2ccncc2)NC(=O)[C@H](Cc2ccc(-c3ccc(C(=O)O)cc3)cc2)NC(=O)[C@H]2C[C@@H](Cc3ccncc3)CN2C(=O)CNC(=O)[C@H](CCN)NC(=O)[C@H](CCC(N)=O)NC(=O)[C@H](CC2CCOCC2)NC(=O)[C@](C)(CC(=O)O)NC(=O)[C@H](Cc2c[nH]c3ccccc23)NC(=O)[C@H](CO)NC(=O)C(C)(C)NC1=O` [Example 200] (cyclo([Bip(4'-COOH)][4Pal][Phe(4-COOH)]G[Pro(cis-4-F)][Trp(βS-Me,4-F)][Aib]SW[αMeD][Ala(4-THP)]Q[Dab]G[dPro(4R-(4-pyridylmethyl))])): 0.014 nM.
The same measure for `C[C@@H](c1c[nH]c2cccc(F)c12)[C@@H]1NC(=O)[C@@H]2C[C@H](O)CN2C(=O)CNC(=O)[C@H](Cc2ccc(C(=O)O)cc2)NC(=O)[C@H](Cc2ccncc2)NC(=O)[C@H](Cc2ccc(-c3ccc(C(=O)O)cc3)cc2)NC(=O)[C@H]2C[C@@H](Cc3ccncc3)CN2C(=O)CNC(=O)[C@H](CCN)NC(=O)[C@H](CCC(N)=O)NC(=O)[C@H](CC2CCOCC2)NC(=O)[C@](C)(CC(=O)O)NC(=O)[C@H](Cc2c[nH]c3ccccc23)NC(=O)[C@H](CO)NC(=O)C(C)(C)NC1=O` [Example 201] (cyclo([Bip(4'-COOH)][4Pal][Phe(4-COOH)]G[cisHyp][Trp(βS-Me,4-F)][Aib]SW[αMeD][Ala(4-THP)]Q[Dab]G[dPro(4R-(4-pyridylmethyl))])): 0.019 nM.
